Test results taken from patent publication US7138361B2, “Herbicidal heterocycles” (E. I. du Pont de Nemours and Company, priority 2000, dated 2006).

Legend:
Type in all cases: in vivo
[1] = test system: blackgrass (Alopecurus myosuroides); test: Test B postemergence
Procedure, shortened: (§1)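 Pre: seeded pots sprayed, chemical in non-phytotoxic solvent/surfactant mix. Post: plants 2–18 cm, 1–4 leaf, same formulation. Greenhouse 13–15 d; visual % control vs untreated, 0–100 scale.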

corn (Zea mays) [2] = test: Test B postemergence
Procedure, shortened: as §1

[3] = test system: velvetleaf (Abutilon theophrasti); test: Test B postemergence
Procedure, shortened: as §1

[4] = test system: wheat (Triticum aestivum); test: Test B postemergence
Procedure, shortened: as §1

wild oat (Avena fatua) = test: Test B postemergence
Procedure, shortened: as §1

Sunflower = test: Test C preemergence; details: Rate 125 g/ha; scale 0 to 100, 0 no effect, 100 complete control
[5] = test system: Surinam grass (Brachiaria decumbens); test: Test C preemergence
Procedure, shortened: (§2)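 Herbicidal effect is a visual 0–100 score (100 = complete control) assigned versus untreated plants, 12 to 14 days after spraying in the greenhouse. Test compounds were applied in a non-phytotoxic, surfactant-containing solvent.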

[6] = test system: bermudagrass (Cynodon dactylon); test: Test C preemergence
Procedure, shortened: as §2

corn (Zea mays) [7] = test: Test C preemergence
Procedure, shortened: as §2

[8] = test system: crabgrass (Digitaria sanguinalis); test: Test C preemergence
Procedure, shortened: as §2

[9] = test system: giant foxtail (Setaria faberii); test: Test C preemergence
Procedure, shortened: as §2

[10] = test system: goosegrass (Eleusine indica); test: Test C preemergence
Procedure, shortened: as §2

[11] = test system: johnsongrass (Sorghum halepense); test: Test C preemergence
Procedure, shortened: as §2

[12] = test system: lambsquarters (Chenopodium album); test: Test C preemergence
Procedure, shortened: as §2

[13] = test system: morningglory (Ipomoea hederacea); test: Test C preemergence
Procedure, shortened: as §2

[14] = test system: pigweed (Amaranthus retroflexus); test: Test C preemergence
Procedure, shortened: as §2

soybean (Glycine max) = test: Test C preemergence
Procedure, shortened: as §2

[15] = test system: velvetleaf (Abutilon theophrasti); test: Test C preemergence
Procedure, shortened: as §2

[16] = test system: woolly cupgrass (Eriochloa villosa); test: Test C preemergence
Procedure, shortened: as §2

[17] = test system: yellow nutsedge (Cyperus esculentus); test: Test C preemergence
Procedure, shortened: as §2

[18] = Rate 125 g/ha, scale 0 to 100, 0 no effect, 100 complete control
[19] = Rate 500 g/ha, scale 0 (no effect) to 100 (complete control), 13 to 15 days
[20] = preemergence, Rate 62 g/ha, scale 0 to 100
[21] = preemergence, Rate 500 g/ha, visual evaluation after 12 to 14 days
[22] = preemergence, Rate 250 g/ha, scale 0 to 100, 0 no effect, 100 complete control

For `COc1cc(N2CCC(n3ccc(C(C)C)n3)C2=O)ccc1Br` (stereo not shown) [Compound 140], the “Plant response rating, Blackgrass” value [1, 18] was 0, the “Plant response rating, Blackgrass” value [1, 19] was 0 and the “Plant response rating, Corn” value (corn (Zea mays) [2]; [18]) was 0. For the same molecule, the “Plant response rating, Corn” value (corn (Zea mays) [2]; [19]) was 0, the “Plant response rating, Velvetleaf” value [3, 18] was 0 and the “Plant response rating, Velvetleaf” value [3, 19] was 60. The “Plant response rating, Wheat” value [4, 18] was 0, the “Plant response rating, Wheat” value [4, 19] was 0 and the “Plant response rating, Wild Oat” value (wild oat (Avena fatua); [18]) was 0. The “Plant response rating, Wild Oat” value (wild oat (Avena fatua); [19]) was 0, the “Plant response rating, Sunflower” value (Sunflower) was 50 and the “Plant response rating, Surinam grass” value [5, 18] was 0. For the same molecule, the “Plant response rating, Surinam grass” value [5, 20] was 0, the “Plant response rating (0 to 100), Surinam grass” value [5, 21] was 100 and the “Plant response rating, Surinam grass” value [5, 22] was 90. For the same molecule, the “Plant response rating, Bermudagrass” value [6, 18] was 100, the “Plant response rating, Bermudagrass” value [6, 20] was 100 and the “Plant response rating (0 to 100 where 0 is no effect and 100 is complete control), Bermudagrass” value [6, 21] was 100. For the same molecule, the “Plant response rating, Bermudagrass” value [6, 22] was 100, the “Plant response rating, Corn” value (corn (Zea mays) [7]; [18]) was 20 and the “Plant response rating, Corn” value (corn (Zea mays) [7]; [20]) was 20. For the same molecule, the “Plant response rating (0 to 100), Corn” value (corn (Zea mays) [7]; [21]) was 30, the “Plant response rating, Corn” value (corn (Zea mays) [7]; [22]) was 30 and the “Plant response rating, Crabgrass” value [8, 18] was 100. The “Plant response rating, Crabgrass” value [8, 20] was 100, the “Plant response rating (0 to 100), Crabgrass” value [8, 21] was 100 and the “Plant response rating, Crabgrass” value [8, 22] was 100. The “Plant response rating, Foxtail, Giant” value [9, 18] was 100, the “Plant response rating, Foxtail, Giant” value [9, 20] was 100 and the “Plant response rating (0 to 100), Foxtail, Giant” value [9, 21] was 100. For the same molecule, the “Plant response rating, Foxtail, Giant” value [9, 22] was 100, the “Plant response rating, Goosegrass” value [10, 18] was 100 and the “Plant response rating, Goosegrass” value [10, 20] was 100. The “Plant response rating (0 to 100), Goosegrass” value [10, 21] was 100, the “Plant response rating, Goosegrass” value [10, 22] was 100 and the “Plant response rating, Johnsongrass” value [11, 18] was 20. For the same molecule, the “Plant response rating, Johnsongrass” value [11, 20] was 0, the “Plant response rating (0 to 100), Johnsongrass” value [11, 21] was 100 and the “Plant response rating, Johnsongrass” value [11, 22] was 100. For the same molecule, the “Plant response rating, Lambsquarters” value [12, 18] was 100, the “Plant response rating, Lambsquarters” value [12, 20] was 100 and the “Plant response rating (0 to 100), Lambsquarters” value [12, 21] was 100. The “Plant response rating, Lambsquarters” value [12, 22] was 100, the “Plant response rating, Morningglory” value [13, 18] was 90 and the “Plant response rating, Morningglory” value [13, 20] was 70. The “Plant response rating (0 to 100), Morningglory” value [13, 21] was 100, the “Plant response rating, Morningglory” value [13, 22] was 100 and the “Plant response rating, Pigweed” value [14, 18] was 100. The “Plant response rating, Pigweed” value [14, 20] was 100, the “Plant response rating (0 to 100), Pigweed” value [14, 21] was 100 and the “Plant response rating, Pigweed” value [14, 22] was 100. The “Plant response rating, Soybean” value (soybean (Glycine max); [18]) was 80, the “Plant response rating, Soybean” value (soybean (Glycine max); [20]) was 50 and the “Plant response rating (0 to 100), Soybean” value (soybean (Glycine max); [21]) was 100. The “Plant response rating, Soybean” value (soybean (Glycine max); [22]) was 100, the “Plant response rating, Velvetleaf” value [15, 18] was 70 and the “Plant response rating, Velvetleaf” value [15, 20] was 60. The “Plant response rating (0 to 100), Velvetleaf” value [15, 21] was 90, the “Plant response rating, Velvetleaf” value [15, 22] was 90 and the “Plant response rating, Cupgrass, Woolly” value [16, 18] was 100. For the same molecule, the “Plant response rating, Cupgrass, Woolly” value [16, 20] was 100, the “Plant response rating (0 to 100), Cupgrass, Woolly” value [16, 21] was 100 and the “Plant response rating, Cupgrass, Woolly” value [16, 22] was 100. For the same molecule, the “Plant response rating, Nutsedge” value [17, 18] was 40, the “Plant response rating, Nutsedge” value [17, 20] was 20 and the “Plant response rating (0 to 100), Nutsedge” value [17, 21] was 70. For the same molecule, the “Plant response rating, Nutsedge” value [17, 22] was 60.
